Test system: cancer of the prostate
Experiment: Case reports: treatment of patients with cancer of the prostate (PSA level, bone scans, X-rays, rectal examination)
Assay type: in vivo, human
Description: Instead, a course of radiation of the involved ribs and lumbar-sacral vertebrae was carried out to reduce pain, following which the patient was referred for further treatment.
They were treated with flutamide plus leuprolide for eight weeks followed by implantation of a radioactive needle into the tumor mass. […] At this point, drug therapy was terminated and local radiation was applied to the lumbar spine to reduce pain. […] Two acquaintances in their sixties had been routinely monitoring their PSA levels every six to twelve months because of their age. […] Both were started immediately on low-dose naltrexone 3 mg/day q.h.s while they considered the desirability of undergoing standard therapies for prostate cancer. This exploration took a period of three months for one and four months for the other with both eventually electing to undergo treatment with flutamide, a testosterone blocking agent.

O=C1CC[C@@]2(O)[C@H]3Cc4ccc(O)c5c4[C@@]2(CCN3CC2CC2)[C@H]1O5 [naltrexone, Naltrexone]
Symptom-free follow-up with normal bone scans and very low PSA readings (Example 1: continued naltrexone treatment): 18 months | Tumor on bone scans (Example 1: naltrexone 3 mg/day q.h.s., after four months): disappeared | PSA level (Example 1: person, bone metastases, after failed drug therapy and radiation, naltrexone 3 mg/day q.h.s., after four months): less than 1.0 | X-rays of the spine (Example 2: naltrexone 3 mg day q.h.s., over five months): became normal | PSA reading (Example 2: person, lumbar vertebrae lesions, after failed drug therapy and local radiation, naltrexone 3 mg day q.h.s., over five months): zero | Tumor shrinkage (Examples 3 and 4: two men, untreated adenocarcinoma of the prostate, naltrexone 3 mg/day q.h.s. alone for three / four months): substantial shrinkage, by more than one-half
